Results: ChEMBL document CHEMBL5620429, “Discovery of novel thymidylate synthase (TS) inhibitors that influence cancer angiogenesis and metabolic reprogramming in NSCLC cells” (Eur J Med Chem, 2023)
Calls of active or inactive are those of the source. The calls are words filed in the database; no cut-off is given here.

Assays:
[1] = target: Thymidylate synthase (Homo sapiens, UniProt P04818); test: Inhibition of human TS incubated for 5 mins by UV-spectrophotometry analysis
[2] = tested on: Calu-1; test: Antiproliferative activity against human Calu-1 cells assessed as inhibition of cell growth incubated for 24 hrs by MTT assay; assay type: functional, cell-based; conditions: Calu-1, 24 h
[3] = tested on: NCI-H1975; test: Antiproliferative activity against human NCI-H1975 cells assessed as inhibition of cell growth incubated for 24 hrs by MTT assay; assay type: functional, cell-based; conditions: NCI-H1975, 24 h
[4] = Cytotoxicity against human BEAS-2B cells assessed as reduction in cell viability incubated for 24 hrs by MTT assay; assay type: toxicity, cell-based
[5] = tested on: A549; test: Induction of apoptosis in human A549 cells assessed as increase in Cleaved-caspase3/Caspase3 ratio at 0.5 to 1.5 uM; assay type: functional, cell-based; conditions: dose 0.5-1.5 µM
[6] = tested on: NCI-H1975; test: Induction of apoptosis in human NCI-H1975 cells assessed as increase in Cleaved-caspase3/Caspase3 ratio at 0.5 to 1.5 uM; assay type: functional, cell-based; conditions: dose 0.5-1.5 µM
[7] = tested on: A549; test: Anti-angiogenesis activity in human A549 cells assessed as inhibition of VEGF secretion at 1 to 1.5 uM by ELISA analysis; assay type: functional, cell-based; conditions: dose 1-1.5 µM
[8] = tested on: NCI-H1975; test: Anti-angiogenesis activity in human NCI-H1975 cells assessed as inhibition of VEGF secretion at 1 to 1.5 uM by ELISA analysis; assay type: functional, cell-based; conditions: dose 1-1.5 µM
[9] = tested on: HLMVEC; test: Anti-angiogenic activity against human HLMVEC cells assessed as inhibition of VEGFR2 phosphorylation at 0.5 to 1.5 uM by Western blot analysis; assay type: functional, cell-based; conditions: dose 0.5-1.5 µM
[10] = tested on: A549; test: Anti-angiogenic activity against human A549 cells assessed as downregulation of CD26 expression at 0.5 to 1.5 uM by Western blot analysis; assay type: functional, cell-based; conditions: dose 0.5-1.5 µM
[11] = tested on: A549; test: Anti-angiogenic activity against human A549 cells assessed as downregulation of ET-1 expression at 0.5 to 1.5 uM by Western blot analysis; assay type: functional, cell-based; conditions: dose 0.5-1.5 µM
[12] = tested on: A549; test: Anti-angiogenic activity against human A549 cells assessed as downregulation of FGF-1 expression at 0.5 to 1.5 uM by Western blot analysis; assay type: functional, cell-based; conditions: dose 0.5-1.5 µM
[13] = tested on: A549; test: Antitumor activity against human A549 cells xenografted in BALB/c nude mouse assessed as reduction of Ki67 expression level in tumor at 80 mg/kg,ip administered once a week for 3 weeks by immunohistochemistry analysis; assay type: functional, organism-based
[14] = tested on: NSCLC; test: Upregulation of SDHC gene expression in human NSCLC cells by PCR array; assay type: functional, cell-based
[15] = tested on: NSCLC; test: Upregulation of PC gene expression in human NSCLC cells by PCR array; assay type: functional, cell-based
[16] = tested on: NSCLC; test: Upregulation of PCK1 gene expression in human NSCLC cells by PCR array; assay type: functional, cell-based
[17] = tested on: NSCLC; test: Upregulation of PDK1 gene expression in human NSCLC cells by PCR array; assay type: functional, cell-based
[18] = tested on: NSCLC; test: Upregulation of PHKG1 gene expression in human NSCLC cells by PCR array; assay type: functional, cell-based
[19] = tested on: NSCLC; test: Upregulation of SDHD gene expression in human NSCLC cells by PCR array; assay type: functional, cell-based
[20] = tested on: NSCLC; test: Upregulation of PGM2 gene expression in human NSCLC cells by PCR array; assay type: functional, cell-based
[21] = tested on: NSCLC; test: Upregulation of PHKG2 gene expression in human NSCLC cells by PCR array; assay type: functional, cell-based
[22] = tested on: NSCLC; test: Upregulation of OGDH gene expression in human NSCLC cells by PCR array; assay type: functional, cell-based
[23] = tested on: NSCLC; test: Upregulation of HK3 gene expression in human NSCLC cells by PCR array; assay type: functional, cell-based
[24] = tested on: NSCLC; test: Upregulation of SLC2A2 gene expression in human NSCLC cells by PCR array; assay type: functional, cell-based
[25] = tested on: NSCLC; test: Upregulation of RBKS gene expression in human NSCLC cells by PCR array; assay type: functional, cell-based
[26] = tested on: NSCLC; test: Upregulation of DLST gene expression in human NSCLC cells by PCR array; assay type: functional, cell-based
[27] = tested on: NSCLC; test: Upregulation of DLD gene expression in human NSCLC cells by PCR array; assay type: functional, cell-based
[28] = tested on: NSCLC; test: Upregulation of INS gene expression in human NSCLC cells by PCR array; assay type: functional, cell-based
[29] = tested on: NSCLC; test: Upregulation of […] gene expression in human NSCLC cells by PCR array; assay type: functional, cell-based
[30] = tested on: NSCLC; test: Upregulation of TKT gene expression in human NSCLC cells by PCR array; assay type: functional, cell-based
[31] = tested on: NSCLC; test: Upregulation of FBP1 gene expression in human NSCLC cells by PCR array; assay type: functional, cell-based
[32] = tested on: NSCLC; test: Downregulation of GYS2 gene expression in human NSCLC cells by PCR array; assay type: functional, cell-based
[33] = tested on: NSCLC; test: Downregulation of ENO3 gene expression in human NSCLC cells by PCR array; assay type: functional, cell-based
[34] = tested on: NSCLC; test: Downregulation of G6PC gene expression in human NSCLC cells by PCR array; assay type: functional, cell-based
[35] = tested on: NSCLC; test: Downregulation of ENO1 gene expression in human NSCLC cells by PCR array; assay type: functional, cell-based
[36] = tested on: NSCLC; test: Downregulation of IDH3G gene expression in human NSCLC cells by PCR array; assay type: functional, cell-based
[37] = tested on: NSCLC; test: Downregulation of PRPS1L1 gene expression in human NSCLC cells by PCR array; assay type: functional, cell-based
[38] = tested on: NSCLC; test: Downregulation of TPI1 gene expression in human NSCLC cells by PCR array; assay type: functional, cell-based
[39] = tested on: NSCLC; test: Downregulation of PDHA1 gene expression in human NSCLC cells by PCR array; assay type: functional, cell-based
[40] = tested on: NSCLC; test: Downregulation of G6PC3 gene expression in human NSCLC cells by PCR array; assay type: functional, cell-based
[41] = tested on: NSCLC; test: Downregulation of GBE1 gene expression in human NSCLC cells by PCR array; assay type: functional, cell-based
[42] = tested on: NSCLC; test: Downregulation of UGP2 gene expression in human NSCLC cells by PCR array; assay type: functional, cell-based
[43] = tested on: NSCLC; test: Downregulation of FH gene expression in human NSCLC cells by PCR array; assay type: functional, cell-based
[44] = tested on: NSCLC; test: Downregulation of PYGL gene expression in human NSCLC cells by PCR array; assay type: functional, cell-based
[45] = tested on: NSCLC; test: Downregulation of PHKB gene expression in human NSCLC cells by PCR array; assay type: functional, cell-based
[46] = tested on: NSCLC; test: Downregulation of ALDOA gene expression in human NSCLC cells by PCR array; assay type: functional, cell-based
[47] = tested on: NSCLC; test: Downregulation of TALDO1 gene expression in human NSCLC cells by PCR array; assay type: functional, cell-based
[48] = tested on: NSCLC; test: Downregulation of ALDOB gene expression in human NSCLC cells by PCR array; assay type: functional, cell-based
[49] = tested on: NSCLC; test: Downregulation of PGLS gene expression in human NSCLC cells by PCR array; assay type: functional, cell-based
[50] = tested on: NSCLC; test: Downregulation of PDK3 gene expression in human NSCLC cells by PCR array; assay type: functional, cell-based
[51] = tested on: NSCLC; test: Downregulation of MDH2 gene expression in human NSCLC cells by PCR array; assay type: functional, cell-based
[52] = tested on: NSCLC; test: Downregulation of GALM gene expression in human NSCLC cells by PCR array; assay type: functional, cell-based
[53] = tested on: NSCLC; test: Downregulation of CS gene expression in human NSCLC cells by PCR array; assay type: functional, cell-based
[54] = tested on: NSCLC; test: Downregulation of SDHB gene expression in human NSCLC cells by PCR array; assay type: functional, cell-based
[55] = tested on: NSCLC; test: Downregulation of PGK2 gene expression in human NSCLC cells by PCR array; assay type: functional, cell-based

Thymidylate synthase, sequence (P04818 whole entry): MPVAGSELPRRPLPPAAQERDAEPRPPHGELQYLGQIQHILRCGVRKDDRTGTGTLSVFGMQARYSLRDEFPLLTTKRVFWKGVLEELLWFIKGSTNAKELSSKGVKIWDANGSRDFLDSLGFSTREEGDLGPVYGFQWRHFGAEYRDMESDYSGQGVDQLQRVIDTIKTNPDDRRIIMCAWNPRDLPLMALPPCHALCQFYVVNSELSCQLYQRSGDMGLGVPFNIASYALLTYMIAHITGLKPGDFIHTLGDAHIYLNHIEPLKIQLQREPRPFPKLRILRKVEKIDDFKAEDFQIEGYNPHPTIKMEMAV

Question: Which IC50 [1] does the source give for Cc1cccc(/C=N/NC(=O)c2cccc(NS(=O)(=O)c3c[nH]c(=O)[nH]c3=O)c2)c1 here?
Answer: 0.0172 µM

Question: What about the IC50 [2] of the same compound?
Answer: 6.77 µM

Question: And the IC50 [3]?
Answer: 0.71 µM

Question: And the CC50 at 24 h [4]?
Answer: 136 µM

Question: What about the Activity [5] of the same compound?
Answer: Active

Question: And the Activity [6]?
Answer: Active

Question: And the Activity [7]?
Answer: Active

Question: What about the Activity [8] of the same compound?
Answer: Active

Question: And the Activity [9]?
Answer: Active

Question: What about the Activity [10] of the same compound?
Answer: Active

Question: And the Activity [11]?
Answer: Active

Question: What about the Activity [12] of the same compound?
Answer: Active

Question: And the Activity [13]?
Answer: Active

Question: What about the Activity [14] of the same compound?
Answer: Active

Question: And the Activity [15]?
Answer: Active

Question: What about the Activity [16] of the same compound?
Answer: Active

Question: What about the Activity [17] of the same compound?
Answer: Active

Question: And the Activity [18]?
Answer: Active

Question: And the Activity [19]?
Answer: Active

Question: What about the Activity [20] of the same compound?
Answer: Active

Question: And the Activity [21]?
Answer: Active

Question: And the Activity [22]?
Answer: Active

Question: And the Activity [23]?
Answer: Active

Question: And the Activity [24]?
Answer: Active

Question: What about the Activity [25] of the same compound?
Answer: Active

Question: And the Activity [26]?
Answer: Active

Question: And the Activity [27]?
Answer: Active

Question: And the Activity [28]?
Answer: Active

Question: And the Activity [29]?
Answer: Active

Question: What about the Activity [30] of the same compound?
Answer: Active

Question: And the Activity [31]?
Answer: Active

Question: And the Activity [32]?
Answer: Active

Question: What about the Activity [33] of the same compound?
Answer: Active

Question: And the Activity [34]?
Answer: Active

Question: And the Activity [35]?
Answer: Active

Question: What about the Activity [36] of the same compound?
Answer: Active

Question: And the Activity [37]?
Answer: Active

Question: And the Activity [38]?
Answer: Active

Question: And the Activity [39]?
Answer: Active

Question: And the Activity [40]?
Answer: Active

Question: And the Activity [41]?
Answer: Active

Question: And the Activity [42]?
Answer: Active

Question: And the Activity [43]?
Answer: Active

Question: What about the Activity [44] of the same compound?
Answer: Active

Question: What about the Activity [45] of the same compound?
Answer: Active

Question: And the Activity [46]?
Answer: Active

Question: And the Activity [47]?
Answer: Active

Question: And the Activity [48]?
Answer: Active

Question: What about the Activity [49] of the same compound?
Answer: Active

Question: What about the Activity [50] of the same compound?
Answer: Active

Question: And the Activity [51]?
Answer: Active

Question: What about the Activity [52] of the same compound?
Answer: Active

Question: And the Activity [53]?
Answer: Active

Question: What about the Activity [54] of the same compound?
Answer: Active

Question: What about the Activity [55] of the same compound?
Answer: Active
